From ChEMBL document CHEMBL1201862, “PubChem BioAssay data set” (2004)
The source made the active and inactive calls.

Columns and labels:
[1] = target: Cytochrome P450 2D6 (Homo sapiens, UniProt P10635); assay: qHTS Assay for Inhibitors and Substrates of Cytochrome P450 2D6. [Related pubchem assays: 410 ]; assay type: ADME; conditions: read-out: Potency
[2] = target: Cytochrome P450 2C9 (Homo sapiens, UniProt P11712); conditions: Potency
[3] = test system: Streptococcus; assay: Luminescence Microorganism-Based Dose Response Follow up to Identify Compounds Cytotoxic to Streptococcus. [Related pubchem assays: 1677 (Project Summary), 1915, 1914, 1902 (Retest at Dose), 1900 (Counter Screen), 1662 (Primary HTS)]; assay type: functional, organism-based
[4] = test system: Streptococcus sp. 'group A'; assay: Streptococcus pyogenes SK(-)GAS viability under kanamycin – luminescence, BacTiterGlo, confirmation, counter-screen for streptokinase expression inhibitor project, dose response (AID 1900); assay type: functional, organism-based
[5] = test system: Streptococcus; assay: GAS UMAA2166 growth inhibition – luminescence, BacTiterGlo, counter-screen for streptokinase expression inhibitor project, dose response (AID 1915); assay type: functional, organism-based;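 also: potency for reduction of bacterial viability or growth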
[6] = target: T1, Leucine aminopeptidase (Plasmodium falciparum 3D7, UniProt Q8IL11); assay: P. falciparum M17LAP inhibitors, primary screen, biochemical, fluorogenic H-Leu-NHMec substrate, 1536-well (AID 1619); assay type: functional
T1 sequence (Q8IL11 whole entry): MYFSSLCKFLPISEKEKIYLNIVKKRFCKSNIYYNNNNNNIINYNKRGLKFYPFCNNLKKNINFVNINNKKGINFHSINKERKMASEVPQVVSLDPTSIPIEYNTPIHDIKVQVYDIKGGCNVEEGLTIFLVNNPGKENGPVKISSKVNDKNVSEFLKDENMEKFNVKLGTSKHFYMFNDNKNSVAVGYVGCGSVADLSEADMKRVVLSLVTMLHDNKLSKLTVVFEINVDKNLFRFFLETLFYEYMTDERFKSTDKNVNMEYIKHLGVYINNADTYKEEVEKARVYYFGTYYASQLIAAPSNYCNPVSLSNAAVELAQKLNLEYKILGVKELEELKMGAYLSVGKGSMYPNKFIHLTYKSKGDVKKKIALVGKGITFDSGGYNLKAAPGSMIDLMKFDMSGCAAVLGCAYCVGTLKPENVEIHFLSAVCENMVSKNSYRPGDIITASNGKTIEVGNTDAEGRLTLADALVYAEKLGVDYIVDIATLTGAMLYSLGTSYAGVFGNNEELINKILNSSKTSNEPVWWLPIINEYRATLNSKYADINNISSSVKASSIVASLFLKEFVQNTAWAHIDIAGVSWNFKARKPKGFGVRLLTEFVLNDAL

[7] = target: T2, Streptokinase A (Streptococcus pyogenes serotype M1, UniProt P10520); assay: viability-normalized secreted streptokinase activity reduction – plasminogen activation absorbance, OD405, dose response (AID 1914); assay type: functional, Streptococcus pyogenes M1 GAS;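 also: secreted streptokinase activity via plasminogen activation per viability signal from cell pellet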
T2 sequence (P10520 whole entry): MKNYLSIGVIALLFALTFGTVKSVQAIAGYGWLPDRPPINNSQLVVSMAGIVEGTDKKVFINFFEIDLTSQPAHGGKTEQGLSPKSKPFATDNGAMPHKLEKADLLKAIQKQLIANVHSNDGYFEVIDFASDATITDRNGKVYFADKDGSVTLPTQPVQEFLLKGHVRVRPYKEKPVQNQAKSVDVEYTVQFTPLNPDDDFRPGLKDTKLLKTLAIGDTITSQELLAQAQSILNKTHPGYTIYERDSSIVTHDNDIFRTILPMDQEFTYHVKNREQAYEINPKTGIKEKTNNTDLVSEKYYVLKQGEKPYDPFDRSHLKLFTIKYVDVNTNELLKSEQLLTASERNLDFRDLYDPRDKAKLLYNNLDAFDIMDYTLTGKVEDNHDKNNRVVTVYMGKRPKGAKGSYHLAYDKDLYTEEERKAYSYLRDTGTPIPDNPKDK

[8] = target: T3, Neuropeptides B/W receptor type 1 (Homo sapiens, UniProt P48145); assay: Fluorescence-based dose response cell-based high throughput screening assay to identify antagonists of the G-protein coupled receptor 7 (GPR7). [Related pubchem assays: 1952 (Screening assay (GPR7 antagonists).), 1880 (Summary AID.)]; assay type: functional
T3 sequence (P48145 whole entry): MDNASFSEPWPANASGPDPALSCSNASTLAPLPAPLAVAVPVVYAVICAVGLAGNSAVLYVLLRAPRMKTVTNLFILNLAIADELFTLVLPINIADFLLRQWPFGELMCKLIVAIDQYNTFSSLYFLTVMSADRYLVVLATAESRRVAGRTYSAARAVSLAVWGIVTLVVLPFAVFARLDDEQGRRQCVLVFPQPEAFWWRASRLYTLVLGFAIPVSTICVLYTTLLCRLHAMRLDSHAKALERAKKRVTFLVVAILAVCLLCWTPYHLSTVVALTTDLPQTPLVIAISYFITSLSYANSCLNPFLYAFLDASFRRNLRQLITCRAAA

[9] = target: Melanin-concentrating hormone receptor 1 (Homo sapiens, UniProt Q99705); assay: Fluorescence-based counterscreen for antagonists of the G-protein coupled receptor 7 (GPR7): cell-based high throughput dose response assay to identify antagonists of the melanin-concentrating hormone receptor 1 (MCHR1).; assay type: functional
[10] = target: Peroxisome proliferator-activated receptor gamma/Nuclear receptor coactivator 1 (Homo sapiens, UniProt P37231); assay type: functional;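 also: agonist potency as compounds enhance coactivator SRC-1 recruitment to PPARgamma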
[11] = target: Peroxisome proliferator-activated receptor gamma/Nuclear receptor coactivator 3 (Homo sapiens, UniProt P37231); assay type: functional;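 also: agonist potency for raising coactivator recruitment to the receptor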
[12] = target: Peroxisome proliferator-activated receptor gamma/Nuclear receptor coactivator 2 (Homo sapiens, UniProt P37231); assay type: functional;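 also: agonist potency for raising coactivator recruitment to the receptor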
Sequence of Peroxisome proliferator-activated receptor gamma/Nuclear receptor coactivator 2 (P37231 whole entry): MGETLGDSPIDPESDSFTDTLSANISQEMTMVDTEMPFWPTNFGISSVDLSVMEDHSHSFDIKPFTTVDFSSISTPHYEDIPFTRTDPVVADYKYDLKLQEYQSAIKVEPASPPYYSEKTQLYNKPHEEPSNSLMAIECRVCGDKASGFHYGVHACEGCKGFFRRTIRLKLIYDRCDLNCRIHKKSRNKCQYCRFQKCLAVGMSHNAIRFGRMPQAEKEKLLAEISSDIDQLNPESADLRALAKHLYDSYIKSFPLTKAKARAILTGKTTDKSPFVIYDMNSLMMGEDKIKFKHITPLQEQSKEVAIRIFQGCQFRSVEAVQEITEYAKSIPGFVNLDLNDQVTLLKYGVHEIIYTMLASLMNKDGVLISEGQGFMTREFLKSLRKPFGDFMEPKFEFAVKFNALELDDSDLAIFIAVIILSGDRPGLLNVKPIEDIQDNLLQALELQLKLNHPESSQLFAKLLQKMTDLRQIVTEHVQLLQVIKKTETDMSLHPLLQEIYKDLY
Sequence of Peroxisome proliferator-activated receptor gamma/Nuclear receptor coactivator 2 (Q15596 whole entry, further chain): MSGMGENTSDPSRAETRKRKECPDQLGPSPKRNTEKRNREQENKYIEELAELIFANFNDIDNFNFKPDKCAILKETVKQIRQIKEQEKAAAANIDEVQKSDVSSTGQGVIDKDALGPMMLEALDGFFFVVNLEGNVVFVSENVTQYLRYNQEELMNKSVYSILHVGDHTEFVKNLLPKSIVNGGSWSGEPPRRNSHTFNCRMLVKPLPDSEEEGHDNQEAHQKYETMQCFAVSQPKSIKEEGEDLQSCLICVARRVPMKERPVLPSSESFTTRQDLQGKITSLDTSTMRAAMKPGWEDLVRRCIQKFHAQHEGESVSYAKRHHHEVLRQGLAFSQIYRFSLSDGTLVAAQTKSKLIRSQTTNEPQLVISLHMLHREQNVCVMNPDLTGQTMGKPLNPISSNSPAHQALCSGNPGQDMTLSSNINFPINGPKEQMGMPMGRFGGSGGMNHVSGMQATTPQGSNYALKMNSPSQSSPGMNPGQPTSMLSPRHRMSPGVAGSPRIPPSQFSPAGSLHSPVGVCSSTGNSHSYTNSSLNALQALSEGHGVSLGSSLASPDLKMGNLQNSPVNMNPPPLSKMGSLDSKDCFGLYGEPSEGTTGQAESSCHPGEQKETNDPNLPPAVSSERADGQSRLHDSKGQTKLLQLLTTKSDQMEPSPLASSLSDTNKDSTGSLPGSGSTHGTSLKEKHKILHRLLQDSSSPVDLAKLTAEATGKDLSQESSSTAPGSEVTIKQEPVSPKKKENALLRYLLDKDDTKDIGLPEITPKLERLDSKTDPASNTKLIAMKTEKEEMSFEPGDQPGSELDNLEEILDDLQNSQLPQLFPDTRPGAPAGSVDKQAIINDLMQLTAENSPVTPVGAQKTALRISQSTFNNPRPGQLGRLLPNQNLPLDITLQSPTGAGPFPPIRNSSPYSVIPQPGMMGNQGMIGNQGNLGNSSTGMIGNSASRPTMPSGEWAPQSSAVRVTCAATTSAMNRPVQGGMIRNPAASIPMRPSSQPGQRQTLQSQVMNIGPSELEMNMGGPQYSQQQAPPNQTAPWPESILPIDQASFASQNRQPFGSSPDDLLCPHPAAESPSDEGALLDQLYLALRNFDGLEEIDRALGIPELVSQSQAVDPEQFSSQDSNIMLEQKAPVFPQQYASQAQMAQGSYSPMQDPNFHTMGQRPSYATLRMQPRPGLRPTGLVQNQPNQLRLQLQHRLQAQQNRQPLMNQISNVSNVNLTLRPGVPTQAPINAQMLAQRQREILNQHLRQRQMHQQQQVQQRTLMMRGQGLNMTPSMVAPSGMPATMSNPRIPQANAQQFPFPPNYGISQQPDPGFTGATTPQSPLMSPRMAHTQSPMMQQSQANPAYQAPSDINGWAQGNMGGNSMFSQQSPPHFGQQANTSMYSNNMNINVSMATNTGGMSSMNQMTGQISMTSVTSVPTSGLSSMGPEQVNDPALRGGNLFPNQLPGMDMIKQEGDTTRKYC

Sequence of Cytochrome P450 2D6 (P10635 whole entry): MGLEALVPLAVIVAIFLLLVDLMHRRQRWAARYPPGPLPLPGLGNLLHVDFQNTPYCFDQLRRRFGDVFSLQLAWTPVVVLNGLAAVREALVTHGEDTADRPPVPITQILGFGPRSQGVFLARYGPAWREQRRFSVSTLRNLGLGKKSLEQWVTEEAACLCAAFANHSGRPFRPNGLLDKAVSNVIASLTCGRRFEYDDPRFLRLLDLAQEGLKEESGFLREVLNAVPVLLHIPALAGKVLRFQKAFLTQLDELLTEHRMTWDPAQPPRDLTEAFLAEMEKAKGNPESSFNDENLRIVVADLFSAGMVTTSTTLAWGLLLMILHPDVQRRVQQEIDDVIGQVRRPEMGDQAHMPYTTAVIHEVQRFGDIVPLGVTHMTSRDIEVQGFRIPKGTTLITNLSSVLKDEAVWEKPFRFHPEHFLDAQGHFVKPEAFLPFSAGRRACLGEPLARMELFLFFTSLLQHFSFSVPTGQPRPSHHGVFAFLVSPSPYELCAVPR
Sequence of Peroxisome proliferator-activated receptor gamma/Nuclear receptor coactivator 3 (P37231 whole entry): as the sequence (P37231 whole entry) above
Sequence of Peroxisome proliferator-activated receptor gamma/Nuclear receptor coactivator 3 (Q9Y6Q9 whole entry, further chain): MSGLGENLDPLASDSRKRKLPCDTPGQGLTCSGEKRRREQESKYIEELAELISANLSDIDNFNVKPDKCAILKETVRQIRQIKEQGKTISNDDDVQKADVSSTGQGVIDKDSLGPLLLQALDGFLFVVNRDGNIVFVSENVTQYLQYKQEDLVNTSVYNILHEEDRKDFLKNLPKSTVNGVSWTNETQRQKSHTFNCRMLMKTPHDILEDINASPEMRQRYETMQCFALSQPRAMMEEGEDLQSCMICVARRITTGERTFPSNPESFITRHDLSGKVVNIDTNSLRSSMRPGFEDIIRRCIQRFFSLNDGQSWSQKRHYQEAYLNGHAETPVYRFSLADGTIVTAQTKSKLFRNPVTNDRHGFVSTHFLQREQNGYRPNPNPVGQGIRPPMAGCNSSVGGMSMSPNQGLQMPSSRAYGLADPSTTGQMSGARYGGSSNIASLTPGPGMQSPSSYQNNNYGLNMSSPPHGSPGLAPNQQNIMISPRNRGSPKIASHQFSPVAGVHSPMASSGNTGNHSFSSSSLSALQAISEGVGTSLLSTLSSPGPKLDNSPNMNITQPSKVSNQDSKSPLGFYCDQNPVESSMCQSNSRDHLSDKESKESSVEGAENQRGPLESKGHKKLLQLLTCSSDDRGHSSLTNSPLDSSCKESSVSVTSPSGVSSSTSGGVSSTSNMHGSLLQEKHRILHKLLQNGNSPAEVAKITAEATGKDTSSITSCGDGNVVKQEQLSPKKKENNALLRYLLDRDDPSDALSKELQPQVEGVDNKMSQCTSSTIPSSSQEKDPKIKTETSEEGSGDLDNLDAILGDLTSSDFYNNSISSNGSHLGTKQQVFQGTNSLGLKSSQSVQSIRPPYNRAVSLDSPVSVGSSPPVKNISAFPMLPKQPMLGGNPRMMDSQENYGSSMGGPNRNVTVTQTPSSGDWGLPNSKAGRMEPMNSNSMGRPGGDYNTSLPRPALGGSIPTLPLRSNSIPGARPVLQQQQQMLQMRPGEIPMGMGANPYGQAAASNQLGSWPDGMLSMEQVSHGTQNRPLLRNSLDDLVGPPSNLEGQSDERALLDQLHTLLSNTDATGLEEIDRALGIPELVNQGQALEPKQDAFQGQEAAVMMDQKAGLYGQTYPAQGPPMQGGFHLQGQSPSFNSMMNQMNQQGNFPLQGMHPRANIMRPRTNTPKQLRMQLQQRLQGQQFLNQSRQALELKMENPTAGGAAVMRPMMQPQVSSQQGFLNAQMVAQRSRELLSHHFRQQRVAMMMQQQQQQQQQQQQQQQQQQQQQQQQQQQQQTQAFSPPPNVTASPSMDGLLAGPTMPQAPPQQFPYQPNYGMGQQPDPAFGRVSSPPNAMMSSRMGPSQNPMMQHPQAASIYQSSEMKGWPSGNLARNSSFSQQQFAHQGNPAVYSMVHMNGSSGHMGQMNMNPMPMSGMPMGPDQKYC
Sequence of Cytochrome P450 2C9 (P11712 whole entry): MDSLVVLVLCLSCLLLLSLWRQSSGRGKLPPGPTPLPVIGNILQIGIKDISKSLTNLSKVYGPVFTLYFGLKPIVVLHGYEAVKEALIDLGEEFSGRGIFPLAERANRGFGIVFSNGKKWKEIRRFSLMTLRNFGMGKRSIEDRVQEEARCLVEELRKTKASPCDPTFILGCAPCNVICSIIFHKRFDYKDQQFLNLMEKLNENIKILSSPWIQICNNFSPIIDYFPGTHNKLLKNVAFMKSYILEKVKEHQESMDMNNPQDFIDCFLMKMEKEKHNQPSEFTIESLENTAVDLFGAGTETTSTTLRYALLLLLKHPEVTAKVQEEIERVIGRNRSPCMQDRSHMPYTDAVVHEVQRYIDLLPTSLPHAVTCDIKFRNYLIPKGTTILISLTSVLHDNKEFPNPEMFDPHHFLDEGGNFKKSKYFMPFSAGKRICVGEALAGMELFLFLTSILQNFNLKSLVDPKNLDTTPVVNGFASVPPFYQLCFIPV

For `CC(C)[C@@]1(NC(=O)[C@@H]2C[C@H]3c4cccc5[nH]cc(c45)C[C@@H]3N(C)C2)O[C@@]2(O)[C@H]3CCCN3C(=O)[C@@H](Cc3ccccc3)N2C1=O`, the AC50 [1] was 31.6 µM (inconclusive).

With `COC(=O)NC(/C(C(=O)OC)=C(\C)NCc1ccccc1)c1ccc(Cl)cc1` (stereo not drawn) the AC50 [1] was 5.01 µM (inconclusive) and the AC50 [2] was 6.31 µM (inconclusive).

`Cc1ccc(-c2nn(CCC(=O)O)cc2/C=C\C(=O)c2ccc(Br)cc2)cc1` was tested, and the EC50 [3] was 25.4 µM (active), the EC50 [4] was 4.41 µM (active) and the EC50 [5] was > 50 µM (not active). For the same compound, the IC50 [6] was 34 µM (active) and the EC50 [7] was 2.33 µM (active).

With `COc1ccccc1N(C(=O)c1ccco1)C(C(=O)NC1CCCCC1)c1cc(OC)c(OC)c(OC)c1` (stereo not drawn) the IC50 [8] was > 43.8 µM (not active) and the IC50 [9] was > 43.8 µM (not active).

With `S=C(NCc1ccc(Cl)cc1Cl)Nc1ccccc1` the EC50 [10] was > 79.4 µM (not active), the EC50 [11] was 67.3 µM (not active) and the EC50 [12] was > 79.4 µM (not active).
